Key:
[1] = target: Ribosomal protein S6 kinase beta-1 (Homo sapiens) (UniProt P23443); settings: Compound concentration 1000.0 nM
[2] = target: Serine/threonine-protein kinase SBK1 (Homo sapiens) (UniProt Q52WX2); settings: Compound concentration 1000.0 nM
[3] = target: Maternal embryonic leucine zipper kinase (Homo sapiens) (UniProt Q14680); settings: Compound concentration 1000.0 nM
[4] = target: TGF-beta receptor type-1 (Homo sapiens) (UniProt P36897); settings: Compound concentration 1000.0 nM
[5] = system: Tyrosine-protein kinase ABL1 (Homo sapiens), P00519 [Q252H]; settings: Compound concentration 1000.0 nM
[6] = target: Homeodomain-interacting protein kinase 4 (Homo sapiens) (UniProt Q8NE63); settings: Compound concentration 1000.0 nM
[7] = target: High affinity nerve growth factor receptor (Homo sapiens) (UniProt P04629); settings: Compound concentration 1000.0 nM
[8] = target: Cyclin-dependent kinase 3 (Homo sapiens) (UniProt Q00526); settings: Compound concentration 1000.0 nM
[9] = system: Serine/threonine-protein kinase B-raf (Homo sapiens), P15056 [V600E]; settings: Compound concentration 1000.0 nM
[10] = target: Mitogen-activated protein kinase 1 (Homo sapiens) (UniProt P28482); settings: Compound concentration 1000.0 nM
[11] = target: Angiopoietin-1 receptor (Homo sapiens) (UniProt Q02763); settings: Compound concentration 1000.0 nM
[12] = target: Ephrin type-A receptor 2 (Homo sapiens) (UniProt P29317); settings: Compound concentration 1000.0 nM
[13] = target: Casein kinase I isoform delta (Homo sapiens) (UniProt P48730); settings: Compound concentration 1000.0 nM
[14] = target: 5-hydroxytryptamine receptor 2A (Homo sapiens) (UniProt P28223); settings: Compound concentration 10.0 uM
[15] = target: T1, Alpha-2B adrenergic receptor (Homo sapiens) (UniProt P18089); settings: Compound concentration 10.0 uM
T1 sequence (whole entry): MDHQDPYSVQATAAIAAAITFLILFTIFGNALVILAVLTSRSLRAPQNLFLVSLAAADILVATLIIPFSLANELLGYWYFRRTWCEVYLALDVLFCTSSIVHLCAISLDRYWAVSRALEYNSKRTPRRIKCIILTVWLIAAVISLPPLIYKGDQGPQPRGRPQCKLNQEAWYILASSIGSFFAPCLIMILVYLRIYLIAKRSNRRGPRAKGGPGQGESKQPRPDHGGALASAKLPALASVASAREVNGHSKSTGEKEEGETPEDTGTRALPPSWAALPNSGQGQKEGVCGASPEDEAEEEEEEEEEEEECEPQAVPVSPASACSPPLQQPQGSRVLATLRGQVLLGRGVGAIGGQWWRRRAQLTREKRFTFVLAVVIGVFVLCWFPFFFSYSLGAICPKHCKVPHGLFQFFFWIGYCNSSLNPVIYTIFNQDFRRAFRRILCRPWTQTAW

[16] = target: Casein kinase I isoform alpha (Homo sapiens) (UniProt P48729); settings: Compound concentration 1000.0 nM
[17] = target: Tyrosine-protein kinase ABL1 (Homo sapiens) (UniProt P00519); settings: Compound concentration 1000.0 nM
[18] = target: Receptor-interacting serine/threonine-protein kinase 4 (Homo sapiens) (UniProt P57078); settings: Compound concentration 1000.0 nM
Chain of Receptor-interacting serine/threonine-protein kinase 4 (Homo sapiens) (P57078 whole entry): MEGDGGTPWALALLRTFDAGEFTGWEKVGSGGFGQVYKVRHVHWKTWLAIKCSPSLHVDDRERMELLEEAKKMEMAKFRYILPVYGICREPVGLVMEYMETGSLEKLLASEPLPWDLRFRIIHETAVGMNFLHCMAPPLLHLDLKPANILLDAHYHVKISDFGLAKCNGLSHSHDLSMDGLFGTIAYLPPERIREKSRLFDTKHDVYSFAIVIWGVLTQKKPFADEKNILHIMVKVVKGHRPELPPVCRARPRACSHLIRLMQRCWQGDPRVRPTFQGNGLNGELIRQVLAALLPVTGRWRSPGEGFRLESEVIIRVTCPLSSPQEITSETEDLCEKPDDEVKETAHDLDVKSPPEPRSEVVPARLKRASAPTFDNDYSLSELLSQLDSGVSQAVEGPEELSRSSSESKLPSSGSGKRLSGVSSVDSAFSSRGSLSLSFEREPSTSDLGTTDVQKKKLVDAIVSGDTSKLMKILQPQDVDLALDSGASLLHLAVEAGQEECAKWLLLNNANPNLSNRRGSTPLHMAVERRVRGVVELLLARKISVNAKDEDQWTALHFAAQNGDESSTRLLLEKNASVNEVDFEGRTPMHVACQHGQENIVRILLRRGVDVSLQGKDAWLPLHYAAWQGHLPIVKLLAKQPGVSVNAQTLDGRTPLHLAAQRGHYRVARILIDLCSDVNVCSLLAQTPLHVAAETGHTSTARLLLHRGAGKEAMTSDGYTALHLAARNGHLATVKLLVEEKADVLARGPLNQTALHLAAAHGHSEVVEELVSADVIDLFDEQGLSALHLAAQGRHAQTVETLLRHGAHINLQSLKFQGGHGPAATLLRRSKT

[19] = target: Cyclin-dependent kinase 11B (Homo sapiens) (UniProt P21127); settings: Compound concentration 1000.0 nM
[20] = system: Receptor-type tyrosine-protein kinase FLT3 (Homo sapiens), P36888 [D835Y]; settings: Compound concentration 1000.0 nM
[21] = target: Rho-associated protein kinase 2 (Homo sapiens) (UniProt O75116); settings: Compound concentration 1000.0 nM
[22] = target: Tyrosine-protein kinase Yes (Homo sapiens) (UniProt P07947); settings: Compound concentration 1000.0 nM
[23] = target: Activin receptor type-2B (Homo sapiens) (UniProt Q13705); settings: Compound concentration 1000.0 nM
Chain of Activin receptor type-2B (Homo sapiens) (Q13705 whole entry): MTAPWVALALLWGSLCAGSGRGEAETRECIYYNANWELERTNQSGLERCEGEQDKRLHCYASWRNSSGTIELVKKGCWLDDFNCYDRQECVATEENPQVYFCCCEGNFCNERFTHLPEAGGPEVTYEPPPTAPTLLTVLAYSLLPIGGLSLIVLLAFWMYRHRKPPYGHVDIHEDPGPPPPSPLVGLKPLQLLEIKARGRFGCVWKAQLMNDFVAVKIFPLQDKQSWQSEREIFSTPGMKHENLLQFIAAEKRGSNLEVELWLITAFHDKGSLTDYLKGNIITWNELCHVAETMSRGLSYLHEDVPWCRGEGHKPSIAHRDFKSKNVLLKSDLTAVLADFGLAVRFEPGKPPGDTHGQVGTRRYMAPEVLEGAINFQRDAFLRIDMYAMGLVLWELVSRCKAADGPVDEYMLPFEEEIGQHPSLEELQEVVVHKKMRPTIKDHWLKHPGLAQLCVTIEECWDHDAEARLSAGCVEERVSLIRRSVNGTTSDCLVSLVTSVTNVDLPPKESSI

[24] = target: Serine/threonine-protein kinase 36 (Homo sapiens) (UniProt Q9NRP7); settings: Compound concentration 1000.0 nM
Chain of Serine/threonine-protein kinase 36 (Homo sapiens) (Q9NRP7 whole entry): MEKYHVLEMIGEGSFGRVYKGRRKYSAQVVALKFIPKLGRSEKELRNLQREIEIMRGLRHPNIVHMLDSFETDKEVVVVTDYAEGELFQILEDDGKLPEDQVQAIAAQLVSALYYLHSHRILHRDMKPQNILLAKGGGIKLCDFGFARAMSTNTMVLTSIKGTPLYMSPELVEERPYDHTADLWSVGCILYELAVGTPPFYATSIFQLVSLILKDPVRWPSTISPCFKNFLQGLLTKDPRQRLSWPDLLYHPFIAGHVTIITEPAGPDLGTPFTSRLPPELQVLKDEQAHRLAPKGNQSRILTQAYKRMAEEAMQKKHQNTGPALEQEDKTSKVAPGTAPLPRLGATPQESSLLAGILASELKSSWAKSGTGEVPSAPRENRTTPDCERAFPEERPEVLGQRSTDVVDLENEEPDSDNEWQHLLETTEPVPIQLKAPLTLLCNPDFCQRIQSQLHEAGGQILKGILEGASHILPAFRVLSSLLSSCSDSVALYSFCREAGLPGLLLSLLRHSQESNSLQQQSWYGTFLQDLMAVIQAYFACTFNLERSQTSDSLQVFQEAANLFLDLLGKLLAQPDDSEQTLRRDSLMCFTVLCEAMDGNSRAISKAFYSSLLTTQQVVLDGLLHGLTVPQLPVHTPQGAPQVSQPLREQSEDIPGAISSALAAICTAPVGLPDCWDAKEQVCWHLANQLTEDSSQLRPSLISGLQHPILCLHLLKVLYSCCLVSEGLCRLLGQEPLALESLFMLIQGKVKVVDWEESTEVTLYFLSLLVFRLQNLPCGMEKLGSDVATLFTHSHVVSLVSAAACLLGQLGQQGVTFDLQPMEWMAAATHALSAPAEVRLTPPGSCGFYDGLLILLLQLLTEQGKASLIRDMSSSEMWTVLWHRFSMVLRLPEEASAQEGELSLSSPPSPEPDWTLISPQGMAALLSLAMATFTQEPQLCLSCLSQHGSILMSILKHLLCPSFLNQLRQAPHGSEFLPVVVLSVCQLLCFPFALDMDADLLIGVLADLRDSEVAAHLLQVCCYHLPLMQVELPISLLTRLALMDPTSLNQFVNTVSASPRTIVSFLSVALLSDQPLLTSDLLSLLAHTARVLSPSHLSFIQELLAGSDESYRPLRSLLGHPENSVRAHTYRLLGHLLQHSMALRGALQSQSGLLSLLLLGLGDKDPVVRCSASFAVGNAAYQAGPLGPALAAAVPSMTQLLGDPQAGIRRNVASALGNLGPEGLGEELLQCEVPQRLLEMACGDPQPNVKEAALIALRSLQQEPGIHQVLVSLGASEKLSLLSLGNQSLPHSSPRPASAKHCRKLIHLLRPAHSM

[25] = target: Focal adhesion kinase 1 (Homo sapiens) (UniProt Q05397); settings: Compound concentration 1000.0 nM
[26] = target: Alpha-1B adrenergic receptor (Homo sapiens, UniProt P35368); assay: GPCRScan assay: inhibition of Alpha1B; parameters: radioligand conc. used [nm] 0.3 – 1.0, parental cells stable HEK
[27] = target: Mitogen-activated protein kinase kinase kinase kinase 4 (Homo sapiens) (UniProt O95819); settings: Compound concentration 1000.0 nM
Chain of Mitogen-activated protein kinase kinase kinase kinase 4 (Homo sapiens) (O95819 2-1239 limits assumed): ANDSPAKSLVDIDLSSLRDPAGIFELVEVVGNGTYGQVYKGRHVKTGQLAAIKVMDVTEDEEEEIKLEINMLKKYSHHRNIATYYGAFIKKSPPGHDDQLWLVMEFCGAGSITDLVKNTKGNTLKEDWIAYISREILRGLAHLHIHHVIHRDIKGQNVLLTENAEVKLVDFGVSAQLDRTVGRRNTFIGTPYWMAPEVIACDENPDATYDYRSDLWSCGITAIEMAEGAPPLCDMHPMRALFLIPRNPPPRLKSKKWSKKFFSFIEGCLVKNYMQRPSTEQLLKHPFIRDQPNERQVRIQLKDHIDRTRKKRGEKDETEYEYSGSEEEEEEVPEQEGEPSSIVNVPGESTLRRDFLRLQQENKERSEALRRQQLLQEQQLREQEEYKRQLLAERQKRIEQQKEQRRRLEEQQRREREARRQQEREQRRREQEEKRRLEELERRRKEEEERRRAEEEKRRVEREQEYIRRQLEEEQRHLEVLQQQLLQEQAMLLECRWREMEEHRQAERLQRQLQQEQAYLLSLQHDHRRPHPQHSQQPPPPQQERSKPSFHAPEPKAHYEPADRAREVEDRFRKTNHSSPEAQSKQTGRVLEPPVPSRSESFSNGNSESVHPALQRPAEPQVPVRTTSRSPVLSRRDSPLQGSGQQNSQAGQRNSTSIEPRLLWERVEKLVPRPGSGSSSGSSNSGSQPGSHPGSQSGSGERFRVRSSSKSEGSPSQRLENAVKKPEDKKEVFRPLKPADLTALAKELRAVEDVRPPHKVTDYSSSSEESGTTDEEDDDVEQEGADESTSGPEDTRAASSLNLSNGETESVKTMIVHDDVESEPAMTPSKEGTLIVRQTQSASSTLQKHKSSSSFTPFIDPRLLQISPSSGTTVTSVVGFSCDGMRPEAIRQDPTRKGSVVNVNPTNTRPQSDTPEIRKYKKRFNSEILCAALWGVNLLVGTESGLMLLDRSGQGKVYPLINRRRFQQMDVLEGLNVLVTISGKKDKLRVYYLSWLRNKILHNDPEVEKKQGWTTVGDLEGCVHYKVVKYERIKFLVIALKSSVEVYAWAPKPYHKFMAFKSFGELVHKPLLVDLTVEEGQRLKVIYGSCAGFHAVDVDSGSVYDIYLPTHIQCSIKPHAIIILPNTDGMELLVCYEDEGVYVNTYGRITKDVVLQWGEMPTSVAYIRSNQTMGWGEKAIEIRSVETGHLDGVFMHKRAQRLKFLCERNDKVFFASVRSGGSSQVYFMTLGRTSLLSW

[28] = target: 5-hydroxytryptamine receptor 5A (Homo sapiens) (UniProt P47898); settings: Compound concentration 10.0 uM
[29] = target: G protein-coupled receptor kinase 3 (Homo sapiens) (UniProt P35626); settings: Compound concentration 1000.0 nM
[30] = target: Mitogen-activated protein kinase 13 (Homo sapiens) (UniProt O15264); settings: Compound concentration 1000.0 nM
[31] = target: Calcium/calmodulin-dependent protein kinase type IV (Homo sapiens) (UniProt Q16566); settings: Compound concentration 1000.0 nM
[32] = target: Cyclin-dependent kinase 15 (Homo sapiens) (UniProt Q96Q40); settings: Compound concentration 1000.0 nM
[33] = target: Serine/threonine-protein kinase WNK4 (Homo sapiens) (UniProt Q96J92); settings: Compound concentration 1000.0 nM
[34] = system: Mast/stem cell growth factor receptor Kit (Homo sapiens), P10721 [A829P]; settings: Compound concentration 1000.0 nM
[35] = target: Epithelial discoidin domain-containing receptor 1 (Homo sapiens) (UniProt Q08345); settings: Compound concentration 1000.0 nM
[36] = target: Myosin light chain kinase (Homo sapiens) (UniProt Q32MK0); settings: Compound concentration 1000.0 nM
[37] = target: Mitogen-activated protein kinase 12 (Homo sapiens) (UniProt P53778); settings: Compound concentration 1000.0 nM
[38] = target: RAC-beta serine/threonine-protein kinase (Homo sapiens) (UniProt P31751); settings: Compound concentration 1000.0 nM
[39] = target: Serine/threonine-protein kinase MRCK gamma (Homo sapiens) (UniProt Q6DT37); settings: Compound concentration 1000.0 nM
[40] = target: Tyrosine-protein kinase Fgr (Homo sapiens) (UniProt P09769); settings: Compound concentration 1000.0 nM
Chain of Tyrosine-protein kinase Fgr (Homo sapiens) (P09769 2-529 limits assumed): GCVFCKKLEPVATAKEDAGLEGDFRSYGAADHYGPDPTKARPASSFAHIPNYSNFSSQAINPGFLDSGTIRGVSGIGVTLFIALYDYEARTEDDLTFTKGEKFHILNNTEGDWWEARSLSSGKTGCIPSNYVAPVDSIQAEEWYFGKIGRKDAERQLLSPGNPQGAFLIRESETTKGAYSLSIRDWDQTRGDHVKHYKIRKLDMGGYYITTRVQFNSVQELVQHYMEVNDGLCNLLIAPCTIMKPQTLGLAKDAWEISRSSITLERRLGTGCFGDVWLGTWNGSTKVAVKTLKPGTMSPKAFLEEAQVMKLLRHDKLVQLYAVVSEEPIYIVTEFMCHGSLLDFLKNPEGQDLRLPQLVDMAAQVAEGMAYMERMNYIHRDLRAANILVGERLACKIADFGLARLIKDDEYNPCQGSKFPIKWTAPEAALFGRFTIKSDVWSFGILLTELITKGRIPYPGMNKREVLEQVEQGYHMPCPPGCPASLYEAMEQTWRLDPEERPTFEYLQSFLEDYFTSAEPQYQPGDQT

Chain of Serine/threonine-protein kinase SBK1 (Homo sapiens) (Q52WX2 whole entry): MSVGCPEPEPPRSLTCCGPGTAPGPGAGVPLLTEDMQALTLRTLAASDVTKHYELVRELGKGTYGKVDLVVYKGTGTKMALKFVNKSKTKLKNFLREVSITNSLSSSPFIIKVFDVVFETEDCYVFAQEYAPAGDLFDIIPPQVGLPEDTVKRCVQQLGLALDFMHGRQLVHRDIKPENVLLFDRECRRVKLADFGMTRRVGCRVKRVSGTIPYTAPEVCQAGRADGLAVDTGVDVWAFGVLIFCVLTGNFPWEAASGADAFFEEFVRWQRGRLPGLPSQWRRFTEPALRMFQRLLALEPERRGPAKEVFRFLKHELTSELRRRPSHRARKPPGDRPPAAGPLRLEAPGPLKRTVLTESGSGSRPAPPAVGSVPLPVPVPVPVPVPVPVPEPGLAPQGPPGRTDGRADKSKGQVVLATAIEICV

Q: With `Cc1c(C(=O)O)cc(-c2ccc(C3CCNCC3)cc2)c2ccc(-c3ccc(C(F)(F)F)cc3)cc12` [PPTN-NC] as the compound, how does the residual activity [1] read?
A: Its residual activity is 100%.

Q: And the residual activity [2]?
A: The residual activity was 100%.

Q: What about the residual activity [3] of the same compound?
A: Its residual activity is 100%.

Q: What about the residual activity [4] of the same compound?
A: Its residual activity is 89%.

Q: What about the residual activity [5] of the same compound?
A: Its residual activity is 100%.

Q: What about the residual activity [6] of the same compound?
A: The residual activity was 100%.

Q: And the residual activity [7]?
A: The residual activity was 100%.

Q: What about the residual activity [8] of the same compound?
A: The residual activity was 100%.

Q: What about the residual activity [9] of the same compound?
A: Its residual activity is 100%.

Q: What about the residual activity [10] of the same compound?
A: Its residual activity is 100%.

Q: What about the residual activity [11] of the same compound?
A: Its residual activity is 100%.

Q: What about the residual activity [12] of the same compound?
A: Its residual activity is 100%.

Q: And the residual activity [13]?
A: The residual activity was 100%.

Q: And the inhibition [14]?
A: The inhibition was 23.4%.

Q: And the inhibition [15]?
A: The inhibition was 79%.

Q: And the residual activity [16]?
A: Its residual activity is 81%.

Q: What about the residual activity [17] of the same compound?
A: The residual activity was 82%.

Q: What about the residual activity [18] of the same compound?
A: Its residual activity is 97%.

Q: And the residual activity [19]?
A: The residual activity was 100%.

Q: And the residual activity [20]?
A: The residual activity was 100%.

Q: And the residual activity [21]?
A: Its residual activity is 89%.

Q: And the residual activity [22]?
A: The residual activity was 100%.

Q: And the residual activity [23]?
A: The residual activity was 88%.

Q: What about the residual activity [24] of the same compound?
A: Its residual activity is 86%.

Q: What about the residual activity [25] of the same compound?
A: The residual activity was 100%.

Q: And the Ki [26]?
A: Its Ki is 3.6 µM.

Q: And the residual activity [27]?
A: Its residual activity is 76%.

Q: And the inhibition [28]?
A: The inhibition was -0.81%.

Q: What about the residual activity [29] of the same compound?
A: The residual activity was 71%.

Q: And the residual activity [30]?
A: The residual activity was 96%.

Q: What about the residual activity [31] of the same compound?
A: The residual activity was 100%.

Q: And the residual activity [32]?
A: Its residual activity is 100%.

Q: What about the residual activity [33] of the same compound?
A: Its residual activity is 100%.

Q: What about the residual activity [34] of the same compound?
A: The residual activity was 98%.

Q: And the residual activity [35]?
A: The residual activity was 100%.

Q: And the residual activity [36]?
A: The residual activity was 94%.

Q: And the residual activity [37]?
A: Its residual activity is 85%.

Q: What about the residual activity [38] of the same compound?
A: The residual activity was 100%.

Q: What about the residual activity [39] of the same compound?
A: Its residual activity is 100%.

Q: And the residual activity [40]?
A: The residual activity was 100%.

Q: `O=C(O)c1cc(-c2ccc(C3CCNCC3)cc2)c2ccc(-c3ccc(C(F)(F)F)cc3)cc2c1` [PPTN] was tested. Which residual activity [1] did it give?
A: The residual activity was 100%.

Q: What about the residual activity [2] of the same compound?
A: The residual activity was 100%.

Q: What about the residual activity [3] of the same compound?
A: Its residual activity is 98%.

Q: And the residual activity [4]?
A: The residual activity was 81%.

Q: What about the residual activity [5] of the same compound?
A: The residual activity was 90%.

Q: And the residual activity [6]?
A: The residual activity was 100%.

Q: What about the residual activity [7] of the same compound?
A: Its residual activity is 100%.

Q: And the residual activity [8]?
A: Its residual activity is 100%.

Q: What about the residual activity [9] of the same compound?
A: The residual activity was 100%.

Q: And the residual activity [10]?
A: Its residual activity is 97%.

Q: What about the residual activity [11] of the same compound?
A: The residual activity was 100%.

Q: What about the residual activity [12] of the same compound?
A: The residual activity was 100%.

Q: And the residual activity [13]?
A: The residual activity was 100%.

Q: What about the inhibition [14] of the same compound?
A: Its inhibition is 29.1%.

Q: And the inhibition [15]?
A: Its inhibition is 85.4%.

Q: And the residual activity [16]?
A: Its residual activity is 83%.

Q: And the residual activity [17]?
A: Its residual activity is 75%.

Q: What about the residual activity [18] of the same compound?
A: The residual activity was 100%.

Q: What about the residual activity [19] of the same compound?
A: Its residual activity is 100%.

Q: And the residual activity [20]?
A: Its residual activity is 100%.

Q: And the residual activity [21]?
A: Its residual activity is 100%.

Q: What about the residual activity [22] of the same compound?
A: Its residual activity is 100%.

Q: And the residual activity [23]?
A: The residual activity was 100%.

Q: And the residual activity [24]?
A: Its residual activity is 100%.

Q: What about the residual activity [25] of the same compound?
A: Its residual activity is 100%.

Q: What about the Ki [26] of the same compound?
A: The Ki was 3.23 µM.

Q: And the residual activity [27]?
A: Its residual activity is 87%.

Q: And the inhibition [28]?
A: The inhibition was 4.98%.

Q: What about the residual activity [29] of the same compound?
A: Its residual activity is 68%.

Q: And the residual activity [30]?
A: The residual activity was 97%.

Q: What about the residual activity [31] of the same compound?
A: The residual activity was 100%.

Q: What about the residual activity [32] of the same compound?
A: The residual activity was 96%.

Q: And the residual activity [33]?
A: Its residual activity is 100%.

Q: And the residual activity [34]?
A: The residual activity was 100%.

Q: What about the residual activity [35] of the same compound?
A: The residual activity was 100%.

Q: And the residual activity [36]?
A: The residual activity was 100%.

Q: And the residual activity [37]?
A: Its residual activity is 99%.

Q: What about the residual activity [38] of the same compound?
A: The residual activity was 95%.

Q: And the residual activity [39]?
A: Its residual activity is 100%.

Q: What about the residual activity [40] of the same compound?
A: The residual activity was 100%.

Reference: ChEMBL document CHEMBL4507292 (2021)
